Each structure is given as a SMILES string. Converted amounts (≈) assume the structure as drawn. Where two headings read alike, the source gives them in different places. Numbered stars: 1 amine (or outer) side, 2 acyl side, 3 side chain; on linkers, the order of the positions; unused ones are H or OH. Bridge positions count the residues as written; N and C are the ends. Side chains are listed from the residue outwards. Peptide text beside a SMILES is read from it. * marks the point of attachment. C20 diacid = O=C(O)CCCCCCCCCCCCCCCCCCC(=O)*; γGlu = O=C(O)[C@H](CCC(=O)[*:2])N[*:1]

Data set [1] in a line: ASSAY (III) ThT fibrillation assay for physical stability. In kind it is physicochemical. In a few lines:
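Formulations with 1 μM ThT, pH adjusted as required, incubated at 37 °C with 960 rpm orbital shaking; fluorescence (ex 444/em 485 nm) read every 20 min. Fibrillation reported as mean ThT fluorescence ± SD of 4–8 replicates at time points; polypeptide concentration measured by reverse-phase HPLC before and after, post-centrifugation.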

Data set [2] deals with T1, rat amylin receptor (rat calcitonin receptor + rat RAMP 3) (Rattus norvegicus, UniProt P32214+Q9JJ73).
T1 construct: expressed in transfected cells; host or cells: BHK tk'ts 13 (transient, FuGENE 6), membranes
T1 sequence (P32214 25-479 isoform P32214-2 limits assumed): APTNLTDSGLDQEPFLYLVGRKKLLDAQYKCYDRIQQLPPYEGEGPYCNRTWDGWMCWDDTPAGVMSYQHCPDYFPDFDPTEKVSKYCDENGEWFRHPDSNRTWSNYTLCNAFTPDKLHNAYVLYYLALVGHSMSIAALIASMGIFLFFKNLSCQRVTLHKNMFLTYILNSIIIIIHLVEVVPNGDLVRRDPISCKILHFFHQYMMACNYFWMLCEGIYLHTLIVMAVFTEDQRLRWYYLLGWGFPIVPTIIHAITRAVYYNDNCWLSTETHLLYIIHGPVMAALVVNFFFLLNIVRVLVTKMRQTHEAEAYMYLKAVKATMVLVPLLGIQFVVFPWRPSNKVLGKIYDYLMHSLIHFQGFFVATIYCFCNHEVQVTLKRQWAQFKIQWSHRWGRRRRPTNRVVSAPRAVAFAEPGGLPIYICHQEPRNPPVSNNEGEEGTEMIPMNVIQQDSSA
T1 sequence (Q9JJ73 23-147 partner): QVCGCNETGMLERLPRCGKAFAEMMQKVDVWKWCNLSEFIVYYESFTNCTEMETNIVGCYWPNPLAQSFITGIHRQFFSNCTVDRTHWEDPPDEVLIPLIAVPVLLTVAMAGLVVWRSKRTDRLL
Kind of data set: ASSAY (VI) binding to the rat amylin receptor. As to conditions: for IC50: binding to rat amylin receptor, read-out: rAmylin-R bind IC50. The essentials:
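Binding to the rat amylin receptor was determined with membrane preparations. The receptor was expressed by transiently transfecting BHK tk′ts 13 cells with rat calcitonin receptor, using FuGENE® 6 (Roche) according to the manufacturer's recommendations. Roughly 48 hours later the cells were harvested and their membranes isolated.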

A short description of data set [3]: ASSAY (IV) determination of solubility. Type of data set: physicochemical. The essentials: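 Polypeptide in water at […] mixed 1:1 with 100 mM buffers of pH 3.0-8.0 (glycylglycine pH 3-5, bistrispropane pH 6-8). Held 18 h at room temperature, then centrifuged; concentration remaining in solution measured by UPLC.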
Where [4] appears, read: Table 7, rat binding selectivity, rCTR IC50 / rAmylin-R IC50.
The mark [5] stands for this setting: bistrispropane buffer, pH 6.5, read-out: Solubility pH 6.5 Concentration.
Setting [6] is: bistrispropane buffer, pH 7.5, read-out: Solubility pH 7.5 Concentration.
Setting [7] is: bistrispropane buffer, pH 6.0, read-out: Solubility pH 6.0 Concentration.
Setting [8] is: bistrispropane buffer, pH 7.0, read-out: Solubility pH 7.0 Concentration.
Where [9] appears, read: bistrispropane buffer, pH 8.0, read-out: Solubility pH 8.0 Concentration.
Where [10] appears, read: glycylglycine buffer, pH 3.0, read-out: Solubility pH 3.0 Concentration.
Where [11] appears, read: glycylglycine buffer, pH 4.0, read-out: Solubility pH 4.0 Concentration.
Where [12] appears, read: glycylglycine buffer, pH 5.0, read-out: Solubility pH 5.0 Concentration.
Where [13] appears, read: Table 7a (preferred compounds), rat binding selectivity, rCTR IC50 / rAmylin-R IC50.
Setting [14] is: ratio of rCTR bind IC50 to rAmylin-R bind IC50.

In general, IC50 refers to the concentration that gives 50% inhibition. In the case of `CC[C@H](C)[C@H](NC(=O)[C@H](C)NC(=O)CNC(=O)[C@H](Cc1ccccc1)NC(=O)[C@H](CC(N)=O)NC(=O)[C@@H]1CCCN1C(=O)[C@H](CO)NC(=O)[C@H](CO)NC(=O)[C@H](Cc1c[nH]cn1)NC(=O)[C@H](CCCNC(=N)N)NC(=O)[C@H](CC(C)C)NC(=O)[C@H](Cc1ccccc1)NC(=O)[C@H](Cc1c[nH]cn1)NC(=O)[C@H](C)NC(=O)[C@H](CC(C)C)NC(=O)[C@H](CCCNC(=N)N)NC(=O)[C@H](CCC(N)=O)NC(=O)[C@@H](NC(=O)[C@H](C)NC(=O)[C@@H]1CSSC[C@H](NC(=O)[C@@H](N)CCCCNC(=O)CC[C@H](NC(=O)CCCCCCCCCCCCCCCCCCC(=O)O)C(=O)O)C(=O)N[C@@H](CC(N)=O)C(=O)N[C@@H]([C@@H](C)O)C(=O)N[C@@H](C)C(=O)N[C@@H]([C@@H](C)O)C(=O)N1)[C@@H](C)O)C(=O)N1CCC[C@H]1C(=O)N[C@@H](CO)C(=O)N[C@@H](CO)C(=O)N[C@H](C(=O)N[C@@H](CC(N)=O)C(=O)N[C@H](C(=O)NCC(=O)N1CCC[C@H]1C(=O)N[C@@H](CC(N)=O)C(=O)N[C@H](C(=O)N1CCC[C@H]1C(N)=O)[C@@H](C)O)C(C)C)[C@@H](C)O` [Example 115] (H-K([γGlu-C20 diacid])CNTATCATQRLAHFLRHSSPNFGAIPSSTNVGPNTP-NH2; disulfide 2-7 (inferred); N-terminus assumed), the “ThT pH 4.0 lag time (h)” value in data set [1] amounted to 45 h. Besides, the IC50 in data set [2] (Table 7) was determined as 0.125 nM. In data set [2] (setting [4]), the “Ratio rCT/rAmylin binding” value stood at 3.0. The solubility at 18 h in data set [3] (setting [5]), in data set [3] (setting [6]), in data set [3] (setting [7]), in data set [3] (setting [8]), in data set [3] (setting [9]) and in data set [3] (setting [10]) was not below 200 µM each time. In addition, the solubility at 18 h in data set [3] (setting [11]) and in data set [3] (setting [12]) was not below 200 µM throughout.

For `CC[C@H](C)[C@H](NC(=O)[C@H](C)NC(=O)CNC(=O)[C@H](Cc1ccccc1)NC(=O)[C@H](CC(N)=O)NC(=O)[C@@H]1CCCN1C(=O)[C@H](CO)NC(=O)[C@H](CO)NC(=O)[C@H](Cc1c[nH]cn1)NC(=O)[C@H](CCCNC(=N)N)NC(=O)[C@H](CC(C)C)NC(=O)[C@H](Cc1ccccc1)NC(=O)[C@H](Cc1c[nH]cn1)NC(=O)[C@H](C)NC(=O)[C@H](CC(C)C)NC(=O)[C@H](CCCNC(=N)N)NC(=O)[C@H](CCC(N)=O)NC(=O)[C@@H](NC(=O)[C@H](C)NC(=O)[C@@H]1CSSC[C@H](NC(=O)[C@@H](N)CCCCNC(=O)CC[C@H](NC(=O)CCCCCCCCCCCCCCCCCCC(=O)O)C(=O)O)C(=O)N[C@@H](CC(N)=O)C(=O)N[C@@H]([C@@H](C)O)C(=O)N[C@@H](C)C(=O)N[C@@H]([C@@H](C)O)C(=O)N1)[C@@H](C)O)C(=O)N1CCC[C@H]1C(=O)N[C@@H](CO)C(=O)N[C@@H](CO)C(=O)N[C@H](C(=O)N1CCC[C@H]1C(=O)N[C@H](C(=O)NCC(=O)N1CCC[C@H]1C(=O)N[C@@H](CC(N)=O)C(=O)N[C@H](C(=O)N[C@@H](Cc1ccc(O)cc1)C(N)=O)[C@@H](C)O)C(C)C)[C@@H](C)O` [Example 116] (H-K([γGlu-C20 diacid])CNTATCATQRLAHFLRHSSPNFGAIPSSTPVGPNTY-NH2; disulfide 2-7), the “ThT pH 4.0 lag time (h)” value in data set [1] is 45 h. Also, in data set [2] (Table 7), the IC50 was 0.125 nM. Also, the “Ratio rCT/rAmylin binding” value in data set [2] (setting [4]), in data set [2] (setting [13]) and in data set [2] (setting [14]) was 72.4 each time. Further, the solubility at 18 h was not below 200 µM in data set [3] (setting [5]); not below 200 µM in data set [3] (setting [6]); not below 200 µM in data set [3] (setting [7]); not below 200 µM in data set [3] (setting [8]); 180 µM (≈ 791 µg/mL) in data set [3] (setting [9]); not below 200 µM in data set [3] (setting [10]). For the same molecule, the solubility at 18 h in data set [3] (setting [11]) and in data set [3] (setting [12]) was not below 200 µM each time.

In the case of `CC[C@H](C)[C@H](NC(=O)[C@H](C)NC(=O)CNC(=O)[C@H](Cc1ccccc1)NC(=O)[C@H](CC(N)=O)NC(=O)[C@@H]1CCCN1C(=O)[C@H](CO)NC(=O)[C@H](CO)NC(=O)[C@H](Cc1c[nH]cn1)NC(=O)[C@H](CCCNC(=N)N)NC(=O)[C@H](CC(C)C)NC(=O)[C@H](Cc1ccccc1)NC(=O)[C@H](CCC(=O)O)NC(=O)[C@H](C)NC(=O)[C@H](CC(C)C)NC(=O)[C@H](CCCNC(=N)N)NC(=O)[C@H](CCC(N)=O)NC(=O)[C@@H](NC(=O)[C@H](C)NC(=O)[C@@H]1CSSC[C@H](NC(=O)[C@@H](N)CCCCNC(=O)CC[C@H](NC(=O)CCCCCCCCCCCCCCCCCCC(=O)O)C(=O)O)C(=O)N[C@@H](CC(N)=O)C(=O)N[C@@H]([C@@H](C)O)C(=O)N[C@@H](C)C(=O)N[C@@H]([C@@H](C)O)C(=O)N1)[C@@H](C)O)C(=O)N1CCC[C@H]1C(=O)N[C@@H](CO)C(=O)N[C@@H](CO)C(=O)N[C@H](C(=O)N[C@@H](CC(N)=O)C(=O)N[C@H](C(=O)NCC(=O)N1CCC[C@H]1C(=O)N[C@@H](CCCNC(=N)N)C(=O)N[C@H](C(=O)N[C@@H](Cc1ccc(O)cc1)C(N)=O)[C@@H](C)O)C(C)C)[C@@H](C)O` [Example 117] (H-K([γGlu-C20 diacid])CNTATCATQRLAEFLRHSSPNFGAIPSSTNVGPRTY-NH2; disulfide 2-7; N-terminus assumed), the “ThT pH 4.0 lag time (h)” value in data set [1] is 45 h. Besides, the concentration for half-maximal inhibition (IC50) in data set [2] (Table 7) worked out at 0.339 nM. Also, the “Ratio rCT/rAmylin binding” value in data set [2] (setting [4]), in data set [2] (setting [13]) and in data set [2] (setting [14]) was 45.5 in each case. In addition, the solubility at 18 h in data set [3] (setting [5]) was not below 200 µM; in data set [3] (setting [6]) it was not below 200 µM; in data set [3] (setting [7]) it was not below 200 µM; in data set [3] (setting [8]), not below 200 µM; in data set [3] (setting [9]), 147 µM (≈ 654 µg/mL); in data set [3] (setting [10]) it was not below 200 µM. Further, the solubility at 18 h in data set [3] (setting [11]) and in data set [3] (setting [12]) was not below 200 µM each time.

With `CC[C@H](C)[C@H](NC(=O)[C@H](C)NC(=O)CNC(=O)[C@H](Cc1ccccc1)NC(=O)[C@H](CC(N)=O)NC(=O)[C@@H]1CCCN1C(=O)[C@H](CO)NC(=O)[C@H](CO)NC(=O)[C@H](Cc1c[nH]cn1)NC(=O)[C@H](CCCNC(=N)N)NC(=O)[C@H](CC(C)C)NC(=O)[C@H](Cc1ccccc1)NC(=O)[C@H](CCC(=O)O)NC(=O)[C@H](C)NC(=O)[C@H](CC(C)C)NC(=O)[C@H](CCCNC(=N)N)NC(=O)[C@H](CCC(N)=O)NC(=O)[C@@H](NC(=O)[C@H](C)NC(=O)[C@@H]1CSSC[C@H](NC(=O)[C@@H](N)CCCCNC(=O)CC[C@H](NC(=O)CCCCCCCCCCCCCCCCCCC(=O)O)C(=O)O)C(=O)N[C@@H](CC(N)=O)C(=O)N[C@@H]([C@@H](C)O)C(=O)N[C@@H](C)C(=O)N[C@@H]([C@@H](C)O)C(=O)N1)[C@@H](C)O)C(=O)N1CCC[C@H]1C(=O)N[C@@H](CO)C(=O)N[C@@H](CO)C(=O)N[C@H](C(=O)N[C@@H](CC(N)=O)C(=O)N[C@H](C(=O)NCC(=O)N1CCC[C@H]1C(=O)N[C@@H](Cc1c[nH]cn1)C(=O)N[C@H](C(=O)N[C@@H](Cc1ccc(O)cc1)C(N)=O)[C@@H](C)O)C(C)C)[C@@H](C)O` [Example 118] (H-K([γGlu-C20 diacid])CNTATCATQRLAEFLRHSSPNFGAIPSSTNVGPHTY-NH2; disulfide 2-7), the “ThT pH 4.0 lag time (h)” value in data set [1] came out at 45 h. In data set [2] (Table 7), the IC50 was 0.104 nM. The “Ratio rCT/rAmylin binding” value in data set [2] (setting [4]), in data set [2] (setting [13]) and in data set [2] (setting [14]) was 52.2 throughout. Further, the solubility at 18 h in data set [3] (setting [5]), in data set [3] (setting [6]), in data set [3] (setting [7]), in data set [3] (setting [8]), in data set [3] (setting [9]) and in data set [3] (setting [10]) was not below 200 µM throughout. Further, the solubility at 18 h in data set [3] (setting [11]) and in data set [3] (setting [12]) was not below 200 µM in each case.

These data come from patent publication US9023789B2, “Amylin analogs and pharmaceutical compositions thereof” (Novo Nordisk A/S, priority 2012, dated 2015).
